The values below are quoted from earlier work in PMC11317963 (Neural Regeneration Research, 2024).

The subject of data set [1] is permanent middle cerebral artery occlusion model. The settings on record: compared with VEGF; ref Pignataro et al., 2015.
For data set [2] the following is noted: ref Diana et al., 2008; Finetti et al., 2012.
The conditions of data set [3]: ref Zhang et al., 2000.

With KLTWQELYQLKYKGI [QK], in data set [1], the vessel permeability entry is listed as “decrease vessel permeability compared with VEGF”. In data set [2], the thermal stability result is given as “relatively high thermal stability”. VEGF: in data set [3], the half-life in vivo entry is “relatively short”.
